# Assay results: patent US20110130386A1, “DNA-PK INHIBITORS” (priority 2008, published 2011)
# Biological target: Mammalian DNA-PK (Homo sapiens, UniProt P78527)
# Assay: DNA-PK inhibition assay (ELISA of p53 Ser15 phosphorylation of GST-p53N66)
# Assay type: biochemical, Mammalian (isolated from HeLa cell nuclear extract)
# Details: DNA-PK from HeLa nuclear extract; mean value; read-out: mean IC50
# Description: In order to assess the inhibitory action of the compounds against DNA-PK in vitro, the following assay was used to determine IC50 values.
# To the assay mix, varying concentrations of inhibitor (in DMSO at a final concentration of 1%) were added. After 10 minutes of incubation, ATP was added to give a final concentration of […] along with a 30 mer double stranded DNA oligonucleotide (final concentraion of 0.5 ng/ml) to initiate the reaction. After 1 hour with shaking, 150 μl of phosphate buffered saline (PBS) was added to the reaction and 5 μl then transferred to a 96 well opaque white plate containing 45 μl of PBS per well where the GSTp53N66 substrate was allowed to bind to the wells for 1 hour. To detect the phosphorylation event on the serine 15 residue of p53 elicited by DNA-PK a p53 phosphoserine-15 antibody (Cell Signaling Technology) was used in a basic ELISA procedure. An anti-rabbit HRP conjugated secondary antibody (Pierce) was then employed in the ELISA before the addition of chemiluminescence reagent. (NEN Renaissance) to detect the signal as measured by chemiluminescent counting via a TopCount NXT (Packard).
# The enzyme activity for each compound is then calculated using the following equation: […]
# The results are discussed below as IC50 values (the concentration at which 50% of the enzyme activity is inhibited). These are determined over a range of different concentrations, normally from 10 μM down to 0.001 μM. Such IC50 values are used as comparative values to identify increased compound potencies.
row,SMILES,IC50
1,COCC1CCCN1Cc1ccc(-c2cccc3c(=O)cc(N4CCOCC4)oc23)c2sc3ccccc3c12 (stereo not drawn) [4at],884 nM
2,COCCN1CCN(Cc2ccc(-c3cccc4c(=O)cc(N5CCOCC5)oc34)c3sc4ccccc4c23)CC1 [4t],7.92 nM
3,CN(C)C1CCN(Cc2ccc(-c3cccc4c(=O)cc(N5CCOCC5)oc34)c3sc4ccccc4c23)CC1 [4ae],177 nM
4,O=c1cc(N2CCOCC2)oc2c(-c3ccc(CN4CCC(O)C4)c4c3sc3ccccc34)cccc12 (stereo not drawn) [4l],30.3 nM
5,CN(C)C1CCN(Cc2ccc(-c3cccc4c(=O)cc(N5CCOCC5)oc34)c3sc4ccccc4c23)C1 (stereo not drawn) [4ah],1.21 nM
6,CCN1CCN(Cc2ccc(-c3cccc4c(=O)cc(N5CCOCC5)oc34)c3sc4ccccc4c23)CC1 [4aq],5.59 nM
7,O=c1cc(N2CCOCC2)oc2c(-c3ccc(CN4CCCC(C(F)(F)F)C4)c4c3sc3ccccc34)cccc12 (stereo not drawn) [4ap],2140 nM
8,O=C(C1CC1)N1CCN(Cc2ccc(-c3cccc4c(=O)cc(N5CCOCC5)oc34)c3sc4ccccc4c23)CC1 [4ag],251 nM
9,O=c1cc(N2CCOCC2)oc2c(-c3ccc(CN4CC[C@@H](F)C4)c4c3sc3ccccc34)cccc12 [4bp],170 nM
10,COC1CCN(Cc2ccc(-c3cccc4c(=O)cc(N5CCOCC5)oc34)c3sc4ccccc4c23)CC1 [4am],415 nM
11,NC1CCCN(Cc2ccc(-c3cccc4c(=O)cc(N5CCOCC5)oc34)c3sc4ccccc4c23)C1 (stereo not drawn) [4cq],36.1 nM
12,CN(C)[C@@H]1CCN(Cc2ccc(-c3cccc4c(=O)cc(N5CCOCC5)oc34)c3sc4ccccc4c23)C1 [4bv],2.05 nM
13,COc1ccc(N2CCN(Cc3ccc(-c4cccc5c(=O)cc(N6CCOCC6)oc45)c4sc5ccccc5c34)CC2C)cc1 (stereo not drawn) [4o],502 nM
14,O=c1cc(N2CCOCC2)oc2c(-c3ccc(CN4CCC[C@H]4CO)c4c3sc3ccccc34)cccc12 [4by],98.6 nM
15,O=c1cc(N2CCOCC2)oc2c(-c3ccc(CN4CCC(C(F)(F)F)CC4)c4c3sc3ccccc34)cccc12 [4ao],5430 nM
16,C[C@@H]1CN(Cc2ccc(-c3cccc4c(=O)cc(N5CCOCC5)oc34)c3sc4ccccc4c23)C[C@H](C)O1 [4q],83.3 nM
17,N[C@@H]1CCCC[C@@H]1NCc1ccc(-c2cccc3c(=O)cc(N4CCOCC4)oc23)c2sc3ccccc3c12 [4bn],115 nM
18,O=c1cc(N2CCOCC2)oc2c(-c3ccc(CN4CCNCC4)c4c3sc3ccccc34)cccc12 [4k],7.14 nM

row,SMILES,IC50
1,CN(C)C1CCCN(Cc2ccc(-c3cccc4c(=O)cc(N5CCOCC5)oc34)c3sc4ccccc4c23)C1 (stereo not drawn) [4au],19.8 nM
2,O=c1cc(N2CCOCC2)oc2c(-c3ccc(CN4CCC(F)(F)C4)c4c3sc3ccccc34)cccc12 [4ca],1010 nM
3,O=c1cc(N2CCOCC2)oc2c(-c3ccc(CN4CCCCCC4)c4c3sc3ccccc34)cccc12 [4x],1910 nM
4,O=c1cc(N2CCOCC2)oc2c(-c3ccc(CN4CCOC(CO)C4)c4c3sc3ccccc34)cccc12 (stereo not drawn) [4al],72.5 nM
5,O=c1cc(N2CCOCC2)oc2c(-c3ccc(CN4CCC(O)CC4)c4c3sc3ccccc34)cccc12 [4j],508 nM
6,O=c1cc(N2CCOCC2)oc2c(-c3ccc(CN4CCCNCC4)c4c3sc3ccccc34)cccc12 [4cr],6.67 nM
7,COC1CCCN(Cc2ccc(-c3cccc4c(=O)cc(N5CCOCC5)oc34)c3sc4ccccc4c23)C1 (stereo not drawn) [4af],232 nM
8,O=c1cc(N2CCOCC2)oc2c(-c3ccc(CN4CCCN(CCO)CC4)c4c3sc3ccccc34)cccc12 [4ad],3.86 nM
9,CC(=O)N1CCN(Cc2ccc(-c3cccc4c(=O)cc(N5CCOCC5)oc34)c3sc4ccccc4c23)CC1 [4z],77.9 nM
10,COc1cccc(N2CCN(Cc3ccc(-c4cccc5c(=O)cc(N6CCOCC6)oc45)c4sc5ccccc5c34)CC2)c1 [4n],975 nM
11,O=c1cc(N2CCOCC2)oc2c(-c3ccc(CN4CCN(CCO)CC4)c4c3sc3ccccc34)cccc12 [4ab],1.39 nM
12,O=c1cc(N2CCOCC2)oc2c(-c3ccc(CN4CCCC(F)(F)C4)c4c3sc3ccccc34)cccc12 [4az],2020 nM
13,CC(C)N1CCN(Cc2ccc(-c3cccc4c(=O)cc(N5CCOCC5)oc34)c3sc4ccccc4c23)CC1 [4aa],1.75 nM
14,O=c1cc(N2CCOCC2)oc2c(-c3ccc(CN4CC[C@H](F)C4)c4c3sc3ccccc34)cccc12 [4bw],438 nM
15,O=c1cc(N2CCOCC2)oc2c(-c3ccc(CN4CCSCC4)c4c3sc3ccccc34)cccc12 [4bz],257 nM
16,O=c1cc(N2CCOCC2)oc2c(-c3ccc(CN4CCCCC4)c4c3sc3ccccc34)cccc12 [4cs],886 nM
17,O=c1cc(N2CCOCC2)oc2c(-c3ccc(CN4CCC[C@@H]4CO)c4c3sc3ccccc34)cccc12 [4bt],174 nM

# Now from value to molecule:
row,IC50,SMILES
1,530 nM,O=c1cc(N2CCOCC2)oc2c(-c3ccc(CNCCc4ccccc4)c4c3sc3ccccc34)cccc12 [4ct]
2,883 nM,C=CCNCc1ccc(-c2cccc3c(=O)cc(N4CCOCC4)oc23)c2sc3ccccc3c12 [4i]
3,238 nM,CN(CC(=O)O)Cc1ccc(-c2cccc3c(=O)cc(N4CCOCC4)oc23)c2sc3ccccc3c12 [4ac]
4,942 nM,CN(Cc1ccccc1)Cc1ccc(-c2cccc3c(=O)cc(N4CCOCC4)oc23)c2sc3ccccc3c12 [4s]
5,291 nM,Cn1cccc1CNCc1ccc(-c2cccc3c(=O)cc(N4CCOCC4)oc23)c2sc3ccccc3c12 [4ce]
6,248 nM,O=c1cc(N2CCOCC2)oc2c(-c3ccc(CNCc4ccccc4)c4c3sc3ccccc34)cccc12 [4b]
7,912 nM,C[C@@H]1COCCN1Cc1ccc(-c2cccc3c(=O)cc(N4CCOCC4)oc23)c2sc3ccccc3c12 [4ak]
8,12.6 nM,CN(C)CCNCc1ccc(-c2cccc3c(=O)cc(N4CCOCC4)oc23)c2sc3ccccc3c12 [4d]
9,69.6 nM,O=c1cc(N2CCOCC2)oc2c(-c3ccc(CNCCc4ccccn4)c4c3sc3ccccc34)cccc12 [4aw]
10,174 nM,O=c1cc(N2CCOCC2)oc2c(-c3ccc(CNC4=NCCS4)c4c3sc3ccccc34)cccc12 [4cf]
11,10.5 nM,CN1CCCCC1CNCc1ccc(-c2cccc3c(=O)cc(N4CCOCC4)oc23)c2sc3ccccc3c12 (stereo not drawn) [4bc]
12,47.2 nM,CN1CCC(NCc2ccc(-c3cccc4c(=O)cc(N5CCOCC5)oc34)c3sc4ccccc4c23)CC1 [4cl]
13,293 nM,CN(C)Cc1ccc(-c2cccc3c(=O)cc(N4CCOCC4)oc23)c2sc3ccccc3c12 [4m]
14,32 nM,CC(CN(C)C)NCc1ccc(-c2cccc3c(=O)cc(N4CCOCC4)oc23)c2sc3ccccc3c12 (stereo not drawn) [4bk]
15,62.5 nM,O=c1cc(N2CCOCC2)oc2c(-c3ccc(CNCCN4CCCCC4)c4c3sc3ccccc34)cccc12 [4co]
16,16.1 nM,CN1CCCC(NCc2ccc(-c3cccc4c(=O)cc(N5CCOCC5)oc34)c3sc4ccccc4c23)C1 (stereo not drawn) [4ck]
17,222 nM,O=c1cc(N2CCOCC2)oc2c(-c3ccc(CNCc4ccco4)c4c3sc3ccccc34)cccc12 [4bh]
18,26.5 nM,O=c1cc(N2CCOCC2)oc2c(-c3ccc(CNCCCn4ccnc4)c4c3sc3ccccc34)cccc12 [4ax]
19,68.4 nM,CN(Cc1ccc(-c2cccc3c(=O)cc(N4CCOCC4)oc23)c2sc3ccccc3c12)Cc1cncn1C [4cd]

row,IC50,SMILES
1,94.6 nM,O=c1cc(N2CCOCC2)oc2c(-c3ccc(CNn4cnnc4)c4c3sc3ccccc34)cccc12 [4cp]
2,48.6 nM,CN1CCCC1CCNCc1ccc(-c2cccc3c(=O)cc(N4CCOCC4)oc23)c2sc3ccccc3c12 (stereo not drawn) [4av]
3,956 nM,N#Cc1cccn1NCc1ccc(-c2cccc3c(=O)cc(N4CCOCC4)oc23)c2sc3ccccc3c12 [4cm]
4,2070 nM,O=c1cc(N2CCOCC2)oc2c(-c3ccc(CN4CCCCO4)c4c3sc3ccccc34)cccc12 [4bo]
5,91.7 nM,O=c1cc(N2CCOCC2)oc2c(-c3ccc(CNCc4cc[nH]n4)c4c3sc3ccccc34)cccc12 [4be]
6,68.9 nM,O=c1cc(N2CCOCC2)oc2c(-c3ccc(CN4CCCO4)c4c3sc3ccccc34)cccc12 [4as]
7,1.31 nM,CN1CCN(Cc2ccc(-c3cccc4c(=O)cc(N5CCOCC5)oc34)c3sc4ccccc4c23)CC1 [4v]
8,299 nM,Cc1cc(NCc2ccc(-c3cccc4c(=O)cc(N5CCOCC5)oc34)c3sc4ccccc4c23)on1 [4bg]
9,433 nM,O=c1cc(N2CCOCC2)oc2c(-c3ccc(CN4CCSC4)c4c3sc3ccccc34)cccc12 [4bq]
10,102 nM,O=c1cc(N2CCOCC2)oc2c(-c3ccc(CN4CCOCC4)c4c3sc3ccccc34)cccc12 [4ai]
11,139 nM,O=c1cc(N2CCOCC2)oc2c(-c3ccc(CNCc4ccncc4)c4c3sc3ccccc34)cccc12 [4cg]
12,406 nM,C[C@H]1COCCN1Cc1ccc(-c2cccc3c(=O)cc(N4CCOCC4)oc23)c2sc3ccccc3c12 [4aj]
13,193 nM,O=c1cc(N2CCOCC2)oc2c(-c3ccc(CNCc4nccs4)c4c3sc3ccccc34)cccc12 [4cj]
14,777 nM,CC(NCc1ccc(-c2cccc3c(=O)cc(N4CCOCC4)oc23)c2sc3ccccc3c12)c1nccs1 (stereo not drawn) [4bb]
15,46.2 nM,Cn1nccc1CNCc1ccc(-c2cccc3c(=O)cc(N4CCOCC4)oc23)c2sc3ccccc3c12 [4bl]
16,122 nM,CN(C)CC(C)(C)CNCc1ccc(-c2cccc3c(=O)cc(N4CCOCC4)oc23)c2sc3ccccc3c12 [4ay]
17,57.3 nM,CCN1CCCC1CNCc1ccc(-c2cccc3c(=O)cc(N4CCOCC4)oc23)c2sc3ccccc3c12 (stereo not drawn) [4cn]
18,1960 nM,CCN(CC)Cc1ccc(-c2cccc3c(=O)cc(N4CCOCC4)oc23)c2sc3ccccc3c12 [4y]
